# In patent publication US4863748A, “Dietary products and uses comprising methylsulfonylmethane” (priority 1986, dated 1989):
# Where two headings read alike, the source gives them in different places.
# How the values were obtained:
# [1] = tested on: physical fatigue syndrome; experiment: Post-athletic activity fatigue (Example 25); assay type: in vivo, human; conditions: 1-2 gm/day, preceding six months; usually 8-10 days
# Text: The physical fatigue syndrome following intense athletic activity in competitive sports which usually persists for 8-10 days in athletes was gone in 2-3 days in individuals who had ingested methylsulfonylmethane (from 1-2 gm/day in split dosages) for the preceding six months.
# coat = experiment: Coat quality of dogs (Example 7); assay type: in vivo, dog (female labradors); conditions: 5% in drinking water, 45 days; three individuals
# Text: The coats of animals A and B of Example 6 were examined by three individuals.
# [2] = tested on: sharp pain spasms in the lower abdominal region; experiment: Acute pain, comparison with codeine, subject one (Example 33); assay type: in vivo, human
# Method: Codeine and methylsulfonylmethane were compared for the relief of pain in subject one, a person who had sharp pain spasms in the lower abdominal region. Subject's appendix had been removed. Pain began after suffering an accidental traumatic blow to the abdomen during a volley ball game. Pyelogram examination indicated no obstruction. […] Codeine (2) plus 1/4 grain with aspirin every 4 hours, provided some relief. The codeine/aspirin was discontinued and 1 g methylsulfonylmethane in warm water was given. A half-hour later all discomfort ceased. A second gram of methylsulfonylmethane in water was given 4 hours later, after which the subject continued pain free.
# skin = experiment: Effect on skin tissue; conditions: in vivo
# Text: Studies to date indicate that it is desirable that animals ingest about 0.5-1.0 milligram/kg body weight/day of methylsulfonylmethane to maintain optimum good health. However, any lower level will serve some benefit. Higher levels are either stored in the body as a sulfur reserve, provide a sufficient concentration to optimize synthesis of the multitude of required sulfur containing biomolecules, or simply are excreted as by the renal pathway or through the skin.
# epiphysitis = conditions: oral; cited from earlier work
# anticholinesterases [3] = conditions: in vivo; cited from earlier work
# [4] = cited from earlier work
# anticholinesterases [5] = experiment: Antagonism of lethal effects of anticholinesterases; conditions: as stated in Example 19
# Trichomonas vaginalis [6] = experiment: In vitro culture of Trichomonas vaginalis (Example 28(a)); assay type: cell-based, Trichomonas vaginalis Strain ATCC No. 30001
# Method: Methylsulfonylmethane has highly variable toxicities for various nematodes. Based on this discovery, tests were conducted on several parasites adverse to the health of vertebrates
# Strain ATCC No. 30001 was cultured in vitro employing diamonds tym medium. Methylsulfonylmethane was added thereto at levels varying from 5.5 to 109.3 mg/ml. At concentrations of 5.5 to 10.9 mg/ml, the methylsulfonylmethane had no effect on this protozoan.
# [7] = Tolerance and toxicity on ingestion; assay type: in vivo, animals; conditions: for NOAEL: in vivo, po
# Text: (§1) The methylsulfonylmethane is usually provided in the aninmal's normal feed rations, periodically throughout the day or on successive days, or both, e.g., for 2 to 21 days or even longer. The daily food ration appropriate for the animal being fed is supplemented with an amount of methylsulfonylmethane calculated to correspond to a predetermined amount per total body weight of the animals being fed. The exact amount of methylsulfonylmethane ingested each day is not always critical, particularly when methylsulfonylmethane administration is over an extended period of days, because the ingested methylsulfonylmethane accumulates in the body tissues and fluids, i.e., reaches an effective titer. Methylsulfonylmethane-supplemented rations providing levels of as low as 0.5-1 mg/kg animal body weight are sometimes effective and levels as high as 300 mg/kg body weight or more are well tolerated. The usual target level per individual animal is about 0.2-2.0 mg/kg body weight preferably 0.5-1.0 mg per kg body weight. Total daily supplements corresponding to up to about 1 gm/kg body weight or more, are preferably employed, depending on the degree of deficiency. Healthy animals often have methylsulfonylmethane blood levels of at least 1 ppm, and desirably, enough methylsulfonylmethane is provided to raise blood levels to above 1 ppm. The oral ingestion of amounts of methylsulfonylmethane in excess of that required to elevate blood levels is not harmful because of the extremely non-toxic nature of methylsulfonylmethane.
# One can safely administer 1-2 grams/kg body wt. of methylsulfonylmethane on a daily basis (equal to 1000-2000 ppm w/w basis). One therefore builds a safely tolerated blood level of about 4000 ppm, which level is highly toxic to many infective organism yet is harmless to the host. Methylsulfonylmethane provides a unique new therapeutic approach, used alone or with concurrent, conventional therapy.
# [8] = Naturally occurring body levels of methylsulfonylmethane; assay type: in vivo, animals
# Text: as §1, with “The oral ingestion of amounts of methylsulfonylmethane in excess of that required to elevate blood levels is not harmful because of the extremely non-toxic nature of methylsulfonylmethane.” left out
# [9] = Pin worm (Enterobius) infection in laboratory mice (Examples 19 and 28(c)); assay type: in vivo; conditions: mouse, blood, po; one animal examined; 2% by wt. in feed and drinking water; read-out: blood level of methylsulfonylmethane
# Text: (§2) Laboratory mice determined by fecal cast examination to have pin worms were given commercial feed and drinking water, ad lib, both of which contained 2% by wt. methylsulfonylmethane. […] The blood level of methylsulfonylmethane in one animal examined exceeded 30 ppm.
# (§3) Laboratory mice determined by fecal cast examination to have pin worms were given 2% by wt. of methylsulfonylmethane in both their commercial feed and drinking water, ad lib.
# Enterobius (pin worms) = experiment: as above; assay type: in vivo; conditions: 2% by wt. in feed and drinking water
# Text: as §2, §3
# Trichomonas vaginalis [10] = experiment: Treatment of Trichomonas vaginalis infection in subjects (Example 28(a)); assay type: in vivo, human
# Text: Both had prior courses of therapy for this disorder without adequate response. […]
# One subject was later reinfected by their sexual partner but the reinfection was cleared employing a daily douche of 5% aqueous methylsulfonylmethane for one week.
smiles,measurement,setting,value
CS(C)(=O)=O [methylsulfonylmethane],duration of physical fatigue syndrome,[1],2 to 3 days
same,coat quality (thickness and shiny appearance),coat,superior
same,time until all discomfort ceased,"[2]; 1 g in warm water, oral",A half-hour
same,pain after second gram,[2]; second gram 4 hours later,pain free
same,pliability and softness of the skin,skin,improving
same,correction of epiphysitis,epiphysitis,rapidly corrected
same,"lethal effects of anticholinesterases such as paraoxon, tetraethyl pyrophosphate and octamethyl pyrophosphoramide",anticholinesterases [3],antagonizes
same,motor activity,[4]; i.p.,reduces
same,body temperature,[4]; rats exposed to 5° C.,lowers
same,antagonism of anticholinesterases in vivo,anticholinesterases [5],antagonizes
same,lethal concentrations,"Trichomonas vaginalis [6]; all higher concentrations tested, to 109.3 mg/ml",> 21.9 mg/mL
same,activity relative to metronidazole HCL,"Trichomonas vaginalis [6]; in vitro, based on this assay",about half
same,concentration with no effect on this protozoan,"Trichomonas vaginalis [6]; in vitro, diamonds tym medium",5.5 to 10.9 mg/mL
same,acute and chronic toxicity,[7]; in the host's diet,remarkably low
same,NOAEL,"[7]; daily basis, read-out: safely administered daily dose",1000 to 2000 mg/kg/day
same,NOAEL,"[7]; supplemented rations, or more, read-out: well tolerated level in rations",≥ 300 mg/kg
same,toxicity at high (greater than 1 gm/kg body wt.) blood levels,"[7]; primates, at least two years",lack evidence of methylsulfonylmethane toxicity
same,blood level in healthy animals,[8]; healthy animals often,at least 1 ppm
same,methylsulfonylmethane in the humoral fluid,[8]; with maturity,less than 0.5 ppm
same,concentration at 408 h,[9],> 30000 ng/mL
same,worms and eggs in fecal cast after 17 days,Enterobius (pin worms),free of worms and eggs
same,outcome in subject's partner,"Trichomonas vaginalis [10]; 500 mg twice daily, two weeks",successfully treated
same,reinfection,"Trichomonas vaginalis [10]; daily douche of 5% aqueous, one week",cleared
